≈ marks a conversion by molar mass, not a printed value. Like-named read-outs stand apart in the source and are kept apart here.
Experiments:
Citrobacter freundii = test: In vitro antibacterial activity, agar dilution method (MIC); type: cell-based
Summary of the method: (§1)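 Agar dilution per CLSI; ~10^4 CFU/spot (0.5 McF, 1:10 in broth); 35°C, 18 h; MIC = lowest conc. with no growth.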

Enterobacter aerogenes = test: as above; type: cell-based; details: Klebsiella aerogenes
Summary of the method: as §1

Escherichia coli = test: as above; type: cell-based; details: Escherichia coli
Summary of the method: as §1

Klebsiella pneumoniae = test: as above; type: cell-based; details: Klebsiella pneumoniae
Summary of the method: as §1

Pantoea agglomerans = test: as above; type: cell-based
Summary of the method: as §1

Proteus mirabilis = test: as above; type: cell-based
Summary of the method: as §1

Proteus vulgaris = test: as above; type: cell-based
Summary of the method: as §1

Pseudomonas aeruginosa = test: as above; type: cell-based
Summary of the method: as §1

Serratia marcescens = test: as above; type: cell-based
Summary of the method: as §1

Enterobacter cloacae = test: as above; type: cell-based
Summary of the method: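 CLSI agar dilution; inoculum ~10^4 CFU per spot from 0.5 McFarland suspension diluted 10-fold. Plates incubated 35°C for 18 h. MIC taken as lowest drug concentration giving no growth.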

[1] = test system: Escherichia coli ATCC BAA2469 (CRE, NDM-1-producing); test: In vivo antibacterial activity, intraperitoneal infection in mice (survival over 7 days); details: for effective dose of in vivo antibacterial activity: mice with intraperitoneal infection by Escherichia coli ATCC BAA2469, intravenous; for Animal survival rate / Number of surviving animals: mice, one intravenous administration 1 hour post-infection, 7 days; for Number of surviving animals: 5 animals per group
Procedure: Mice were randomly grouped based on body weight, with 5 mice in each group, regardless of gender. The infectious bacteria was Escherichia coli ATCC BAA2469 (CRE, NDM-1-producing). The test bacterial solution was diluted with 5% high-activity dry yeast. Mice received intraperitoneal injection of 0.5 mL of 100% minimum lethal dose (100% MLD) bacterial solution. One intravenous administration was given at 1 hour post-infection at a dose volume of 10 mL/kg. Animal survival numbers were observed over 7 days, and survival rates were calculated.

[2] = target: T1, recombinant Escherichia coli LpxC enzyme (rLpxC) (Escherichia coli, UniProt P0A725); test: Inhibition of recombinant Escherichia coli LpxC enzyme activity (LC-MS); type: biochemical; details: 37°C, 30 minutes reaction, substrate UDP-3-O (R-hydroxytetradecanoyl)-N-acetylglucosamine
T1 sequence (P0A725 1-305): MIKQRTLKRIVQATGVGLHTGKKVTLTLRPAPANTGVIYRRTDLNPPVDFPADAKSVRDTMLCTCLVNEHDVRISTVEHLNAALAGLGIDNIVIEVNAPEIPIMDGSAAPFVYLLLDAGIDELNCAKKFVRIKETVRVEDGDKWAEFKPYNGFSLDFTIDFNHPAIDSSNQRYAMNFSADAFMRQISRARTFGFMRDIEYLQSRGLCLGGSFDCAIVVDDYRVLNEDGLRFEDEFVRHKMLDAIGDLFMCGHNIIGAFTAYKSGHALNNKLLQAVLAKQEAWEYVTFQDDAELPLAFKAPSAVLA
Procedure: Preparation of recombinant Escherichia coli LpxC enzyme (rLpxC). 2 µL of recombinant Escherichia coli LpxC enzyme (6.29 mg/mL) was added to 18 µL of distilled water. After thorough mixing, 2 µL of this mixture was added to 1042.4 µL of distilled water and mixed well to prepare a 36 nM working solution.
The substrate was UDP-3-O (R-hydroxytetradecanoyl)-N-acetylglucosamine, with UDP-α-D-N-Acetylglucosamine Disodium Salt as the internal standard. Mobile phase A: 90% water-10% acetonitrile containing 10 mM ammonium acetate; B: acetonitrile.
Reaction system: Corresponding solutions were prepared as per the table below, and placed in a 37°C metal bath, and mixed at 300 rpm for 10 minutes. After mixing for 10 minutes, 10 µl of 250 µM substrate was added to each group to initiate the reaction, and placed in a 37°C metal bath and reacted at 300 rpm for 30 minutes.
Termination solution: 1.1 µL of 1 mM internal standard was added to 2 mL of acetonitrile. 1.5 mL of EP tubes were taken and 100 µL of termination solution was added to each EP tube. The concentration of the internal standard in the final 350 µL system is 100 ng/mL.
Detection: 10 µL of reaction solution was added to 100 µL of the termination solution in an EP tube, mixed thoroughly, and then 240 µL of distilled water was added and mixed well, centrifuged at 14,000 rpm for 5 minutes. 70 µL of supernatant was transferred to an LC-MS vial and API 6500 Qtrap LC-MS system was used to measure substrates and metabolites. The median inhibition concentrations (IC50) of the four optical isomers and ACHN-975 against rLpxC enzyme were calculated. Table 4 Inhibitory activity of 4 optical isomers and control drug against recombinant Escherichia coli LpxC enzyme

[3] = ATCC43864, Citrobacter freundii ATCC 43864, agar dilution, 35°C, 18 hours, read-out: MIC
[4] = ATCC13048, Enterobacter aerogenes ATCC 13048, agar dilution, 35°C, 18 hours, read-out: MIC
[5] = 18 h, Escherichia coli 13-43 (mcr-1), agar dilution, 35°C, 18 hours, read-out: MIC
[6] = 18 h, Escherichia coli 17-R28 (CRE, NDM-1-producing), agar dilution, 35°C, 18 hours, read-out: MIC
[7] = ATCC2469, 18 h, Escherichia coli ATCC 2469 (CRE, NDM-1-producing), agar dilution, 35°C, 18 hours, read-out: MIC
[8] = ATCC35218, 18 h, Escherichia coli ATCC 35218 (ESBLs-producing), agar dilution, 35°C, 18 hours, read-out: MIC
[9] = 18 h, Klebsiella pneumoniae 09-20 (mcr-1), agar dilution, 35°C, 18 hours, read-out: MIC
[10] = 18 h, Klebsiella pneumoniae 17-R27 (CRE), agar dilution, 35°C, 18 hours, read-out: MIC
[11] = 18 h, Klebsiella pneumoniae 18-8 (ESBLs-producing), agar dilution, 35°C, 18 hours, read-out: MIC
[12] = ATCC700603, 18 h, Klebsiella pneumoniae ATCC 700603 (ESBLs-producing), agar dilution, 35°C, 18 hours, read-out: MIC
[13] = ATCCBAA2146, 18 h, Klebsiella pneumoniae ATCC BAA-2146 (CRE, NDM-1-producing), agar dilution, 35°C, 18 hours, read-out: MIC
[14] = ATCC27993, Pantoea agglomerans ATCC 27993, agar dilution, 35°C, 18 hours, read-out: MIC
[15] = ATCC49565, Proteus mirabilis ATCC 49565, agar dilution, 35°C, 18 hours, read-out: MIC
[16] = ATCC29905, Proteus vulgaris ATCC 29905, agar dilution, 35°C, 18 hours, read-out: MIC
[17] = Pseudomonas aeruginosa PAO1, agar dilution, 35°C, 18 hours, read-out: MIC
[18] = ATCC21074, Serratia marcescens ATCC 21074, agar dilution, 35°C, 18 hours, read-out: MIC
[19] = Enterobacter cloacae CDC1000654 (NDM-1-producing), agar dilution, 35°C, 18 hours, read-out: MIC

Row | SMILES | MIC (Citrobacter freundii; [3]) | MIC (Enterobacter aerogenes; [4]) | MIC (Escherichia coli; [5]) | MIC (Escherichia coli; [6]) | MIC (Escherichia coli; [7]) | MIC (Escherichia coli; [8]) | MIC (Klebsiella pneumoniae; [9]) | MIC (Klebsiella pneumoniae; [10]) | MIC (Klebsiella pneumoniae; [11]) | MIC (Klebsiella pneumoniae; [12]) | MIC (Klebsiella pneumoniae; [13]) | MIC (Pantoea agglomerans; [14]) | MIC (Proteus mirabilis; [15]) | MIC (Proteus vulgaris; [16]) | MIC (Pseudomonas aeruginosa; [17]) | MIC (Serratia marcescens; [18]) | MIC (Enterobacter cloacae; [19]) | effective dose of in vivo antibacterial activity [1] | IC50 [2] | Animal survival rate ([1]; dose 1.4 mg/kg) | further results
1 | CO[C@H]1CCC[C@@H]1C#CC#Cc1ccc(C(=O)N[C@H](C(=O)NO)C(C)(C)N)cc1 [A] | 0.25 µg/mL (≈ 0.629 µM) | 0.5 µg/mL (≈ 1.26 µM) | 1 µg/mL (≈ 2.52 µM) | 0.25 µg/mL (≈ 0.629 µM) | 0.12 µg/mL (≈ 0.302 µM) | 0.25 µg/mL (≈ 0.629 µM) | 1 µg/mL (≈ 2.52 µM) | 1 µg/mL (≈ 2.52 µM) | 0.5 µg/mL (≈ 1.26 µM) | 8 µg/mL (≈ 20.1 µM) | 8 µg/mL (≈ 20.1 µM) | 2 µg/mL (≈ 5.03 µM) | 1 µg/mL (≈ 2.52 µM) | 0.5 µg/mL (≈ 1.26 µM) | 2 µg/mL (≈ 5.03 µM) | 0.25 µg/mL (≈ 0.629 µM) | 4 µg/mL (≈ 10.1 µM) | > 3 mg/kg | 4.68 nM |  | Animal survival rate ([1]; dose 1.5 mg/kg): 0%; Number of surviving animals ([1]; dose 1.5 mg/kg): 0 individuals; Animal survival rate ([1]; dose 3 mg/kg): 0%; Number of surviving animals ([1]; dose 3 mg/kg): 0 individuals; Animal survival rate ([1]; dose 6 mg/kg): 20%; Number of surviving animals ([1]; dose 6 mg/kg): 1 individuals
2 | COC[C@@H]1C[C@H]1C#CC#Cc1ccc(C(=O)N[C@H](C(=O)NO)C(C)(C)N)cc1 [Ia, N-(S)-3-amino-1-hydroxyamino-3-methyl-1-oxobutan-2-yl-4-[[(1R,2R)-2-(methoxymethylene)cyclopropyl]but-1,3-diynyl]benzamide] | 0.25 µg/mL (≈ 0.652 µM) | 0.5 µg/mL (≈ 1.3 µM) | 0.12 µg/mL (≈ 0.313 µM) | 0.12 µg/mL (≈ 0.313 µM) | 0.12 µg/mL (≈ 0.313 µM) | 0.12 µg/mL (≈ 0.313 µM) | 0.25 µg/mL (≈ 0.652 µM) | 0.5 µg/mL (≈ 1.3 µM) | 0.06 µg/mL (≈ 0.156 µM) | 1 µg/mL (≈ 2.61 µM) | 1 µg/mL (≈ 2.61 µM) | 0.5 µg/mL (≈ 1.3 µM) | 0.25 µg/mL (≈ 0.652 µM) | 0.12 µg/mL (≈ 0.313 µM) | 0.5 µg/mL (≈ 1.3 µM) | 0.25 µg/mL (≈ 0.652 µM) | 1 µg/mL (≈ 2.61 µM) | below 1.5 mg/kg | 1.07 nM | 80% | Animal survival rate ([1]; dose 0.35 mg/kg): 0%; Number of surviving animals ([1]; dose 0.35 mg/kg): 0 individuals; Number of surviving animals ([1]; dose 1.4 mg/kg): 4 individuals
3 | COC[C@H]1C[C@@H]1C#CC#Cc1ccc(C(=O)N[C@H](C(=O)NO)C(C)(C)N)cc1 [Ib, N-(S)-3-amino-1-hydroxyamino-3-methyl-1-oxobutan-2-yl-4-[[(1S,2S)-2-(methoxymethylene)cyclopropyl]but-1,3-diynyl]benzamide] |  |  |  |  |  |  |  |  |  |  |  |  |  |  |  |  |  | below 1.5 mg/kg | 0.857 nM | 60% | MIC (Citrobacter freundii; Citrobacter freundii, ATCC43864, 18 h): 0.25 µg/mL (≈ 0.652 µM); MIC (Enterobacter aerogenes; ATCC13048, 18 h): 0.5 µg/mL (≈ 1.3 µM); MIC (Escherichia coli; 18 h, Escherichia coli 13-43 (mcr-1), agar dilution, 35°C): 0.5 µg/mL (≈ 1.3 µM); MIC (Escherichia coli; 18 h, Escherichia coli 17-R28 (CRE, NDM-1-producing), agar dilution, 35°C): 0.25 µg/mL (≈ 0.652 µM); MIC (Escherichia coli; ATCC2469, 18 h, Escherichia coli ATCC 2469 (CRE, NDM-1-producing), agar dilution, 35°C, 18 hours): 0.25 µg/mL (≈ 0.652 µM); MIC (Escherichia coli; ATCC35218, 18 h): 0.25 µg/mL (≈ 0.652 µM); MIC (Klebsiella pneumoniae; 18 h): 0.5 µg/mL (≈ 1.3 µM); MIC (Klebsiella pneumoniae; 18 h, Klebsiella pneumoniae 09-20 (mcr-1), agar dilution, 35°C): 0.5 µg/mL (≈ 1.3 µM); MIC (Klebsiella pneumoniae; 18 h, Klebsiella pneumoniae 17-R27 (CRE), agar dilution, 35°C): 0.25 µg/mL (≈ 0.652 µM); MIC (Klebsiella pneumoniae; ATCC700603, 18 h): 1 µg/mL (≈ 2.61 µM); MIC (Klebsiella pneumoniae; ATCCBAA2146, 18 h, Klebsiella pneumoniae ATCC BAA-2146 (CRE, NDM-1-producing), agar dilution, 35°C, 18 hours): 2 µg/mL (≈ 5.22 µM); MIC (Pantoea agglomerans; Pantoea agglomerans, ATCC27993, 18 h): 1 µg/mL (≈ 2.61 µM); MIC (Proteus mirabilis; Proteus mirabilis, ATCC49565, 18 h): 1 µg/mL (≈ 2.61 µM); MIC (Proteus vulgaris; Proteus vulgaris, ATCC29905, 18 h): 0.12 µg/mL (≈ 0.313 µM); MIC (Pseudomonas aeruginosa; Pseudomonas aeruginosa, PAO1, 18 h): 1 µg/mL (≈ 2.61 µM); MIC (Serratia marcescens; Serratia marcescens, ATCC21074, 18 h): 0.25 µg/mL (≈ 0.652 µM); MIC (Enterobacter cloacae; Enterobacter cloacae, 18 h): 2 µg/mL (≈ 5.22 µM)
